Active and inactive are the calls of the source.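 Rule for the calls: active = inhibition of at least 50% in a panel; inactive = the rest.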
Columns and labels:
Assay in all cases: off-target binding across receptors and transporters, profiling panel, selectivity assay for STAT3/NF-kB dual inhibitor project, cell-based, radioligand binding, single concentration (AID 624355)
[1] = tested on: GABAB1A; conditions: Ricerca radioligand binding panel, at 10 µM, stronger effect = higher value
[2] = tested on: Glutamate, NMDA, Glycine; conditions: Ricerca radioligand binding panel, Glycine site, at 10 µM, stronger effect = higher value
[3] = target: 5-hydroxytryptamine receptor 1A (Homo sapiens) (UniProt P08908); conditions: Ricerca radioligand binding panel, Serotonin (5-Hydroxytryptamine) 5-HT1A, at 10 µM, stronger effect = higher value
Sequence of 5-hydroxytryptamine receptor 1A (Homo sapiens) (P08908 whole entry, looked up): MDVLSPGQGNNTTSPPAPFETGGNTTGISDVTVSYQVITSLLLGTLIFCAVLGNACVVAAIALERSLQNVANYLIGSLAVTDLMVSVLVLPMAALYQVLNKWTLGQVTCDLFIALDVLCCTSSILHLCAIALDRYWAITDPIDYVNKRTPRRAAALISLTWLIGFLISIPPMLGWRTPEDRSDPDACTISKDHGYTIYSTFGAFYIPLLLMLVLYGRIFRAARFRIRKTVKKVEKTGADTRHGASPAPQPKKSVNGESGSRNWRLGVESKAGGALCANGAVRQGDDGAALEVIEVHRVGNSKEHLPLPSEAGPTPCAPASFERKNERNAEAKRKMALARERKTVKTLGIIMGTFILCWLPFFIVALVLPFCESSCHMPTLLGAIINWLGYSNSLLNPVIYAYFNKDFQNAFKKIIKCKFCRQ

[4] = tested on: Adenosine A1; conditions: Ricerca radioligand binding panel, at 10 µM, stronger effect = higher value
[5] = tested on: Histamine H3; conditions: Ricerca radioligand binding panel, at 10 µM, stronger effect = higher value
[6] = target: Platelet-activating factor receptor (Homo sapiens) (UniProt P25105); conditions: Ricerca radioligand binding panel, Platelet Activating Factor (PAF), at 10 µM, stronger effect = higher value
Sequence of Platelet-activating factor receptor (Homo sapiens) (P25105 whole entry, looked up): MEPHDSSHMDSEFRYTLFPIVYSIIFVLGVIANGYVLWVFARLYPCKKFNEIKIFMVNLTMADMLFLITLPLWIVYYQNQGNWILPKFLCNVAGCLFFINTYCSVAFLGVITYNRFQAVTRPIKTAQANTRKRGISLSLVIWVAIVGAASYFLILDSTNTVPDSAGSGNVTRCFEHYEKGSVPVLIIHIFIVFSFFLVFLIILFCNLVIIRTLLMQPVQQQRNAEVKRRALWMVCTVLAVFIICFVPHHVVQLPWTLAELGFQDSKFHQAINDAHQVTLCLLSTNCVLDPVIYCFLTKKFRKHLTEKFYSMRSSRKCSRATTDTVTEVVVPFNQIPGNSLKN

[7] = target: Glucocorticoid receptor (Homo sapiens) (UniProt P04150); conditions: Ricerca radioligand binding panel, at 10 µM, stronger effect = higher value
[8] = tested on: Endothelin ETA; conditions: Ricerca radioligand binding panel, at 10 µM, stronger effect = higher value
[9] = tested on: Serotonin (5-Hydroxytryptamine) 5-HT3; conditions: Ricerca radioligand binding panel, at 10 µM, stronger effect = higher value
[10] = target: Muscarinic acetylcholine receptor M2 (Homo sapiens) (UniProt P08172); conditions: Ricerca radioligand binding panel, at 10 µM, stronger effect = higher value
Sequence of Muscarinic acetylcholine receptor M2 (Homo sapiens) (P08172 whole entry, looked up): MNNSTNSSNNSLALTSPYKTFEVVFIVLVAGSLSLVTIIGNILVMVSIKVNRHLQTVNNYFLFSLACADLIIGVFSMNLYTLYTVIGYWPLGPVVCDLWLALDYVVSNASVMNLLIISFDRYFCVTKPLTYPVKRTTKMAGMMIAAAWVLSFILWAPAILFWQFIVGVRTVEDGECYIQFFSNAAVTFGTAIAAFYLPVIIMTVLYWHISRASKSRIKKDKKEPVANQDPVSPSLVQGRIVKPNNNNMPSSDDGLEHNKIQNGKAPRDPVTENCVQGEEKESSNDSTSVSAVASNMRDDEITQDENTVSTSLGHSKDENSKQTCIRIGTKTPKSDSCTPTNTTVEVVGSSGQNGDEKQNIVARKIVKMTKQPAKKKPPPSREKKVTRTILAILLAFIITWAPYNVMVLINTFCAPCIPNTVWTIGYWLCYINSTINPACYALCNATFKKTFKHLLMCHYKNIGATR

[11] = target: Voltage-gated inwardly rectifying potassium channel KCNH2 (Homo sapiens) (UniProt Q12809); conditions: Ricerca radioligand binding panel, Potassium Channel hERG, at 10 µM, stronger effect = higher value
Sequence of Voltage-gated inwardly rectifying potassium channel KCNH2 (Homo sapiens) (Q12809 whole entry, looked up): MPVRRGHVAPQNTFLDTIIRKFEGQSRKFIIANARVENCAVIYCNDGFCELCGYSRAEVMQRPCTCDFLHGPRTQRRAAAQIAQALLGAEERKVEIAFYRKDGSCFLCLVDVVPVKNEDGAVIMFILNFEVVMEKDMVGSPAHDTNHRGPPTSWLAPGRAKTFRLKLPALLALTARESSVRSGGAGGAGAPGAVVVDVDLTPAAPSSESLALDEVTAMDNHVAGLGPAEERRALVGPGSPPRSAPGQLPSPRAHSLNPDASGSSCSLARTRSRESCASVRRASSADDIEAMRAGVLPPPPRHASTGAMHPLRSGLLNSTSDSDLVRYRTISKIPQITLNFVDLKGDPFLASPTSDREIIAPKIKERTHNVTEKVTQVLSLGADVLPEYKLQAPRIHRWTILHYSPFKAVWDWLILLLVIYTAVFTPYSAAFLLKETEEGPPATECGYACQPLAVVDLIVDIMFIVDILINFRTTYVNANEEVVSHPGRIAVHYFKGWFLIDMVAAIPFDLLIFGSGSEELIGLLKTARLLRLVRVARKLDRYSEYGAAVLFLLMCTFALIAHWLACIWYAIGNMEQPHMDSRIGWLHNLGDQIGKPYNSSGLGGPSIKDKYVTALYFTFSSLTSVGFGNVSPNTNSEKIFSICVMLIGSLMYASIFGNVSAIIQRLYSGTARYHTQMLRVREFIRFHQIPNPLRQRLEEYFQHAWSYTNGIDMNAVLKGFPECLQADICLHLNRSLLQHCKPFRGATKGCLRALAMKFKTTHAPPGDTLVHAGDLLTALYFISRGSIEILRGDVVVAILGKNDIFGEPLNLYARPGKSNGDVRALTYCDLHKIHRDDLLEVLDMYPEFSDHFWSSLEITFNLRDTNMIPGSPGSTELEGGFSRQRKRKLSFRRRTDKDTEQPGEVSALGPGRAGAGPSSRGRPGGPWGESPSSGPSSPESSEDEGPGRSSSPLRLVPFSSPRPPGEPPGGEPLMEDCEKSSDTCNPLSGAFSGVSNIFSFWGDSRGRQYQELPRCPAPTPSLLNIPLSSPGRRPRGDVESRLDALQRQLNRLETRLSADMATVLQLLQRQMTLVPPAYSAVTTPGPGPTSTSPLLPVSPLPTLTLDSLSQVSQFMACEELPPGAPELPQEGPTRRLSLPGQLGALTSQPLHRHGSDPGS

[12] = tested on: Leukotriene, Cysteinyl CysLT1; conditions: Ricerca radioligand binding panel, at 10 µM, stronger effect = higher value
[13] = target: Neuropeptide Y receptor type 1 (Homo sapiens) (UniProt P25929); conditions: Ricerca radioligand binding panel, Neuropeptide Y Y1, at 10 µM, stronger effect = higher value
Sequence of Neuropeptide Y receptor type 1 (Homo sapiens) (P25929 whole entry, looked up): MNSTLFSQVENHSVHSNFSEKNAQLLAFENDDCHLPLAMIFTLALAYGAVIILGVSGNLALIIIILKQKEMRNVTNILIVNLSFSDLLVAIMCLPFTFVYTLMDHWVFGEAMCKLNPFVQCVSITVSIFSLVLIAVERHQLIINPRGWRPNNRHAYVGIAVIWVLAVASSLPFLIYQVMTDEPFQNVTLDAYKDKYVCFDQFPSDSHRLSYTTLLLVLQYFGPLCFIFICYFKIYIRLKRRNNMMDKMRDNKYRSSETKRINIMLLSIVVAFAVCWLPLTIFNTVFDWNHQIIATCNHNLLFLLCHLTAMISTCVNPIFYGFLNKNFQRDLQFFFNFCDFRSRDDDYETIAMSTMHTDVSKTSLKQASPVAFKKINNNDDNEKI

[14] = tested on: Glutamate, NMDA, Agonism; conditions: Ricerca radioligand binding panel, Agonism site, at 10 µM, stronger effect = higher value
[15] = tested on: Tachykinin NK1; conditions: Ricerca radioligand binding panel, at 10 µM, stronger effect = higher value
[16] = tested on: Androgen (Testosterone) AR; conditions: Ricerca radioligand binding panel, at 10 µM, stronger effect = higher value
[17] = tested on: Nicotinic Acetylcholine; conditions: Ricerca radioligand binding panel, at 10 µM, stronger effect = higher value
[18] = tested on: Rolipram; conditions: Ricerca radioligand binding panel, at 10 µM, stronger effect = higher value
[19] = tested on: Histamine H1; conditions: Ricerca radioligand binding panel, at 10 µM, stronger effect = higher value
[20] = tested on: Transporter, GABA; conditions: Ricerca radioligand binding panel, at 10 µM, stronger effect = higher value
[21] = target: Neuropeptide Y receptor type 2 (Homo sapiens) (UniProt P49146); conditions: Ricerca radioligand binding panel, Neuropeptide Y Y2, at 10 µM, stronger effect = higher value
[22] = tested on: Bradykinin B1; conditions: Ricerca radioligand binding panel, at 10 µM, stronger effect = higher value
[23] = tested on: Dopamine D2S; conditions: Ricerca radioligand binding panel, at 10 µM, stronger effect = higher value
[24] = tested on: Cannabinoid CB1; conditions: Ricerca radioligand binding panel, at 10 µM, stronger effect = higher value
[25] = tested on: Transporter, Norepinephrine (NET); conditions: Ricerca radioligand binding panel, at 10 µM, stronger effect = higher value
[26] = tested on: Voltage-dependent L-type calcium channel subunit beta-4 (Rattus norvegicus) + Pro-epidermal growth factor (Homo sapiens) + Estrogen receptor (Homo sapiens) + Glucocorticoid receptor (Homo sapiens) + 5-hydroxytryptamine receptor 1A (Homo sapiens) + Alpha-2A adrenergic receptor (Homo sapiens) + Adenosine receptor A3 (Homo sapiens) + Androgen receptor (Homo sapiens) + Muscarinic acetylcholine receptor M1 (Homo sapiens) + D(4) dopamine receptor (Homo sapiens) + Alpha-2A adrenergic receptor (Rattus norvegicus) + Sodium- and chloride-dependent GABA transporter 1 (Rattus norvegicus) + Endothelin receptor type B (Homo sapiens) + Histamine H2 receptor (Homo sapiens) + Endothelin-1 receptor (Homo sapiens) + Neuropeptide Y receptor type 1 (Homo sapiens) + B2 bradykinin receptor (Homo sapiens) + Sodium-dependent serotonin transporter (Homo sapiens) + Histamine H1 receptor (Homo sapiens) + Mu-type opioid receptor (Homo sapiens) + D(3) dopamine receptor (Homo sapiens) + Delta-type opioid receptor (Homo sapiens) + Kappa-type opioid receptor (Homo sapiens) + Glutamate receptor ionotropic, kainate 3 (Rattus norvegicus) + 5-hydroxytryptamine receptor 3A (Homo sapiens) + Melatonin receptor type 1A (Homo sapiens) + Neuropeptide Y receptor type 2 (Homo sapiens) + P2Y purinoceptor 1 (Rattus norvegicus) + Thyroid hormone receptor alpha (Rattus norvegicus) + Glutamate receptor ionotropic, NMDA 2B (Rattus norvegicus) + Sodium-dependent dopamine transporter (Homo sapiens) + Protein kinase C zeta type …; conditions: Ricerca radioligand binding panel, at 10 µM, stronger effect = higher value
[27] = target: Muscarinic acetylcholine receptor M3 (Homo sapiens) (UniProt P20309); conditions: Ricerca radioligand binding panel, at 10 µM, stronger effect = higher value
[28] = tested on: Prostanoid EP4; conditions: Ricerca radioligand binding panel, at 10 µM, stronger effect = higher value
[29] = tested on: Glutamate, Kainate; conditions: Ricerca radioligand binding panel, at 10 µM, stronger effect = higher value
[30] = tested on: Adenosine A3; conditions: Ricerca radioligand binding panel, at 10 µM, stronger effect = higher value
[31] = target: Kappa-type opioid receptor (Homo sapiens) (UniProt P41145); conditions: Ricerca radioligand binding panel, Opiate (OP2, KOP), at 10 µM, stronger effect = higher value
Sequence of Kappa-type opioid receptor (Homo sapiens) (P41145 whole entry, looked up): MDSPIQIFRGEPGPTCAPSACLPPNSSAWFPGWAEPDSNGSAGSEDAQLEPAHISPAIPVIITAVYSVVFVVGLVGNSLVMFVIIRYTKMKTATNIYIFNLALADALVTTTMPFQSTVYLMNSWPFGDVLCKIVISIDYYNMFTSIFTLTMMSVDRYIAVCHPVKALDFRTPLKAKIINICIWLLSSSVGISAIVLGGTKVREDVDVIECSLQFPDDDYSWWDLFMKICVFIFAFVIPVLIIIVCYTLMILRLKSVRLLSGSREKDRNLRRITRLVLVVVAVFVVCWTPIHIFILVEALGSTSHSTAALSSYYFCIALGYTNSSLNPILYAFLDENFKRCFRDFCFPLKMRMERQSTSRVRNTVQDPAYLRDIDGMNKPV

[32] = tested on: Calcium Channel N-Type; conditions: Ricerca radioligand binding panel, at 10 µM, stronger effect = higher value
[33] = tested on: Transporter, Dopamine (DAT); conditions: Ricerca radioligand binding panel, at 10 µM, stronger effect = higher value
[34] = tested on: Histamine H2; conditions: Ricerca radioligand binding panel, at 10 µM, stronger effect = higher value
[35] = target: 5-hydroxytryptamine receptor 2B (Homo sapiens) (UniProt P41595); conditions: Ricerca radioligand binding panel, Serotonin (5-Hydroxytryptamine) 5-HT2B, at 10 µM, stronger effect = higher value
Sequence of 5-hydroxytryptamine receptor 2B (Homo sapiens) (P41595 whole entry, looked up): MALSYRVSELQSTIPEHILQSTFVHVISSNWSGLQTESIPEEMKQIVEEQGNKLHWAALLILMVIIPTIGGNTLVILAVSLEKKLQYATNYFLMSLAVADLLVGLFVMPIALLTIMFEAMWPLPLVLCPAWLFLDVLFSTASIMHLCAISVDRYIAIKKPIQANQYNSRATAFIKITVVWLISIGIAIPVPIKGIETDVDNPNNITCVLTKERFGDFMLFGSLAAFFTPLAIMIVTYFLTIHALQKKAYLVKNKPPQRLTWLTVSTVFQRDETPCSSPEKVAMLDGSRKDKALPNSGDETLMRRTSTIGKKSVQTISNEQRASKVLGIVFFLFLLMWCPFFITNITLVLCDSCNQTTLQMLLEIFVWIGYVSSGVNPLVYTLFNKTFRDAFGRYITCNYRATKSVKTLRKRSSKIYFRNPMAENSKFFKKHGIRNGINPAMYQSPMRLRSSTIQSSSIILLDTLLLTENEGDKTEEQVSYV

[36] = tested on: Dopamine D4.2; conditions: Ricerca radioligand binding panel, at 10 µM, stronger effect = higher value
[37] = tested on: Calcium Channel L-Type, Dihydropyridine; conditions: Ricerca radioligand binding panel, Dihydropyridine site, at 10 µM, stronger effect = higher value
[38] = tested on: Endothelin ETB; conditions: Ricerca radioligand binding panel, at 10 µM, stronger effect = higher value
[39] = tested on: GABAA, Flunitrazepam, Central; conditions: Ricerca radioligand binding panel, Flunitrazepam site, at 10 µM, stronger effect = higher value
[40] = target: Delta-type opioid receptor (Homo sapiens) (UniProt P41143); conditions: Ricerca radioligand binding panel, Opiate (OP1, DOP), at 10 µM, stronger effect = higher value
[41] = target: Estrogen receptor (Homo sapiens) (UniProt P03372); conditions: Ricerca radioligand binding panel, Estrogen Era, at 10 µM, stronger effect = higher value
[42] = tested on: Transporter, Serotonin (5-Hydroxytryptamine); conditions: Ricerca radioligand binding panel, at 10 µM, stronger effect = higher value
[43] = target: Beta-2 adrenergic receptor (Homo sapiens) (UniProt P07550); conditions: Ricerca radioligand binding panel, Adrenergic B2, at 10 µM, stronger effect = higher value
[44] = tested on: Thyroid Hormone; conditions: Ricerca radioligand binding panel, at 10 µM, stronger effect = higher value
[45] = tested on: Adrenergic a1B; conditions: Ricerca radioligand binding panel, at 10 µM, stronger effect = higher value
[46] = tested on: Glutamate, NMDA, Phencyclidine; conditions: Ricerca radioligand binding panel, Phencyclidine site, at 10 µM, stronger effect = higher value
[47] = tested on: Adrenergic B1; conditions: Ricerca radioligand binding panel, at 10 µM, stronger effect = higher value
[48] = tested on: Phorbol Ester; conditions: Ricerca radioligand binding panel, at 10 µM, stronger effect = higher value
[49] = tested on: Interleukin IL-1; conditions: Ricerca radioligand binding panel, at 10 µM, stronger effect = higher value
[50] = target: Muscarinic acetylcholine receptor M1 (Homo sapiens) (UniProt P11229); conditions: Ricerca radioligand binding panel, at 10 µM, stronger effect = higher value
[51] = tested on: Adrenergic a1A; conditions: Ricerca radioligand binding panel, at 10 µM, stronger effect = higher value
[52] = tested on: Sigma1; conditions: Ricerca radioligand binding panel, at 10 µM, stronger effect = higher value
[53] = tested on: Melatonin MT1; conditions: Ricerca radioligand binding panel, at 10 µM, stronger effect = higher value
[54] = target: D(1A) dopamine receptor (Homo sapiens) (UniProt P21728); conditions: Ricerca radioligand binding panel, Dopamine D1, at 10 µM, stronger effect = higher value
Sequence of D(1A) dopamine receptor (Homo sapiens) (P21728 whole entry, looked up): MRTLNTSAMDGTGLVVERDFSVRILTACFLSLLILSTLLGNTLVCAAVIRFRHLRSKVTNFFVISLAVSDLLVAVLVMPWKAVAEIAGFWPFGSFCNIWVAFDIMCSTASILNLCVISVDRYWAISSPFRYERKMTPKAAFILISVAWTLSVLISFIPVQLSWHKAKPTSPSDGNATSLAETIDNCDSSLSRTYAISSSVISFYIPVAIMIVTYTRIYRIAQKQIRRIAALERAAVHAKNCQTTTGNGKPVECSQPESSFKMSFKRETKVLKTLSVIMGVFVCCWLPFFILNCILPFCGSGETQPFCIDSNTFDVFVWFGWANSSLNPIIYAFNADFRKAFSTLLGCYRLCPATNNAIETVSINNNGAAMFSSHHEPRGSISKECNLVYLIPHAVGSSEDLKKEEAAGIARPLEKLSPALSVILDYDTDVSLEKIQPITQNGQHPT

[55] = tested on: Imidazoline I2, Central; conditions: Ricerca radioligand binding panel, at 10 µM, stronger effect = higher value
[56] = tested on: Potassium Channel KATP; conditions: Ricerca radioligand binding panel, at 10 µM, stronger effect = higher value
[57] = tested on: GABAA, Muscimol, Central; conditions: Ricerca radioligand binding panel, Muscimol site, at 10 µM, stronger effect = higher value
[58] = tested on: Adrenergic a1D; conditions: Ricerca radioligand binding panel, at 10 µM, stronger effect = higher value
[59] = tested on: Calcium Channel L-Type, Benzothiazepine; conditions: Ricerca radioligand binding panel, Benzothiazepine site, at 10 µM, stronger effect = higher value
[60] = tested on: Opiate (OP3, MOP); conditions: Ricerca radioligand binding panel, at 10 µM, stronger effect = higher value
[61] = target: D(3) dopamine receptor (Homo sapiens) (UniProt P35462); conditions: Ricerca radioligand binding panel, Dopamine D3, at 10 µM, stronger effect = higher value
Sequence of D(3) dopamine receptor (Homo sapiens) (P35462 whole entry, looked up): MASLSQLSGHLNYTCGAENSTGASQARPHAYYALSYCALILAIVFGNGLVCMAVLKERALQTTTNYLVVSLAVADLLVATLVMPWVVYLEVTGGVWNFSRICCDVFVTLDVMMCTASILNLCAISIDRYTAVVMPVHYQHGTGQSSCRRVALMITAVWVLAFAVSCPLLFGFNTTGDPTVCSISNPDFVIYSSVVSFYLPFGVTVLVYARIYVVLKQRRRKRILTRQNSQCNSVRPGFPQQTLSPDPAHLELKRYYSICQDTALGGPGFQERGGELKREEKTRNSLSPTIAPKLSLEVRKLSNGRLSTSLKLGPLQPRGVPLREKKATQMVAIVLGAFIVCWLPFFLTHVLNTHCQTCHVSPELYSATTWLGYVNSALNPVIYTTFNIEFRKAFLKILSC

[62] = tested on: Purinergic P2X; conditions: Ricerca radioligand binding panel, at 10 µM, stronger effect = higher value
[63] = tested on: Epidermal Growth Factor (EGF); conditions: Ricerca radioligand binding panel, at 10 µM, stronger effect = higher value
[64] = tested on: Adenosine A2A; conditions: Ricerca radioligand binding panel, at 10 µM, stronger effect = higher value
[65] = tested on: Bradykinin B2; conditions: Ricerca radioligand binding panel, at 10 µM, stronger effect = higher value
[66] = target: Alpha-2A adrenergic receptor (Homo sapiens) (UniProt P08913); conditions: Ricerca radioligand binding panel, Adrenergic a2A, at 10 µM, stronger effect = higher value
Sequence of Alpha-2A adrenergic receptor (Homo sapiens) (P08913 whole entry, looked up): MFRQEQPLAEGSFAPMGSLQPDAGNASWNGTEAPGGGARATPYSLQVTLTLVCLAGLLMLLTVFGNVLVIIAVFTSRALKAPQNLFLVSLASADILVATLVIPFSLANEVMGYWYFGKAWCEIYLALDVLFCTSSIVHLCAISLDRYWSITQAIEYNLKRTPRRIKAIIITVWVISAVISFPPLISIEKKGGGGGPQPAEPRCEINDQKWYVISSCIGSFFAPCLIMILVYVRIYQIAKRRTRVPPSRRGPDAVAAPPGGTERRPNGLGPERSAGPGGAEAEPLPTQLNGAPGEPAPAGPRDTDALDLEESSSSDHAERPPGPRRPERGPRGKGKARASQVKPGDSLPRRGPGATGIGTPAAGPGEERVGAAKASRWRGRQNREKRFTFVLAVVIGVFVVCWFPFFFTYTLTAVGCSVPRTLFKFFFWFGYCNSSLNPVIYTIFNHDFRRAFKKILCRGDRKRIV

[67] = tested on: Purinergic P2Y; conditions: Ricerca radioligand binding panel, at 10 µM, stronger effect = higher value

COc1ccc(CC2CCN(c3ncnc4sccc34)CC2)cc1
inhibition [1]: 10% (inactive) | inhibition [2]: 1% (inactive) | inhibition [3]: 1% (inactive) | inhibition [4]: 52% | inhibition [5]: -2% (inactive) | inhibition [6]: 30% (inactive) | inhibition [7]: 15% (inactive) | inhibition [8]: 21% (inactive) | inhibition [9]: -13% (inactive) | inhibition [10]: 4% (inactive) | inhibition [11]: 28% (inactive) | inhibition [12]: -3% (inactive) | inhibition [13]: 2% (inactive) | inhibition [14]: 9% (inactive) | inhibition [15]: 6% (inactive) | inhibition [16]: 11% (inactive) | inhibition [17]: -26% (inactive) | inhibition [18]: 12% (inactive) | inhibition [19]: 8% (inactive) | inhibition [20]: 1% (inactive) | inhibition [21]: 11% (inactive) | inhibition [22]: 4% (inactive) | inhibition [23]: 11% (inactive) | inhibition [24]: 28% (inactive) | inhibition [25]: 80% | inhibition [26]: 3% (inactive) | inhibition [27]: 11% (inactive) | inhibition [28]: 27% (inactive) | inhibition [29]: -3% (inactive) | inhibition [30]: 23% (inactive) | inhibition [31]: 69% | inhibition [32]: -2% (inactive) | inhibition [33]: 98% | inhibition [34]: -8% (inactive) | inhibition [35]: 47% (inactive) | inhibition [36]: 4% (inactive) | inhibition [37]: 47% (inactive) | inhibition [38]: 6% (inactive) | inhibition [39]: -6% (inactive) | inhibition [40]: 27% (inactive) | inhibition [41]: 1% (inactive) | inhibition [42]: 44% (inactive) | inhibition [43]: 10% (inactive) | inhibition [44]: 9% (inactive) | inhibition [45]: 6% (inactive) | inhibition [46]: 13% (inactive) | inhibition [47]: 23% (inactive) | inhibition [48]: 10% (inactive) | inhibition [49]: 9% (inactive) | inhibition [50]: -5% (inactive) | inhibition [51]: 28% (inactive) | inhibition [52]: 13% (inactive) | inhibition [53]: 68% | inhibition [54]: 7% (inactive) | inhibition [55]: 15% (inactive) | inhibition [56]: 18% (inactive) | inhibition [57]: 58% | inhibition [58]: 19% (inactive) | inhibition [59]: 8% (inactive) | inhibition [60]: 55% | inhibition [61]: 51% | inhibition [62]: -12% (inactive) | inhibition [63]: 2% (inactive) | inhibition [64]: 31% (inactive) | inhibition [65]: 8% (inactive) | inhibition [66]: 56% | inhibition [67]: -7% (inactive)

— PubChem BioAssay AID624355 (The Scripps Research Institute Molecular Screening Center, 2012)
